Experimental findings from ChEMBL document CHEMBL1681664, “Specific biotinylation of IMP dehydrogenase” (Bioorg Med Chem Lett, 2011) are described below.

SMILES strings stand for the structures. Active and inactive are the calls of the source. No cut-off for these calls is given here.

For experiment [1], the target named is Inosine-5'-monophosphate dehydrogenase 2 (Homo sapiens) (UniProt P12268). The experiment in a line: Inhibition of human IMPDH2 at 100 to 500 uM at pH 8.
Experiment [2] relates to Escherichia coli. In words: Ratio of Kinact to Ki for Escherichia coli IMPDH at 25 degC.
The target in experiment [3] is Inosine-5'-monophosphate dehydrogenase 2 (Homo sapiens) (UniProt P12268). In words: Ratio of Kinact to Ki for human IMPDH2 at 37 degC.
The test system of experiment [4] is Escherichia coli. The experiment in a line: Inhibition of recombinant Escherichia coli IMPDH by SDS-PAGE.
In experiment [5] the test system is Escherichia coli. The experiment in a line: Inhibition of recombinant Escherichia coli IMPDH with active site Cys replaced with Ala mutant by SDS-PAGE.
Experiment [6] addresses Inosine-5'-monophosphate dehydrogenase 2 (Homo sapiens) (UniProt P12268). The experiment in a line: Inhibition of human IMPDH2 at 200 uM by SDS-PAGE.
Experiment [7] has as its system Escherichia coli. In words: Inhibition of IMPDH in wild type Escherichia coli MG1655 cell lysate by SDS-PAGE.
Experiment [8] deals with Escherichia coli. The experiment in a line: Inhibition of GMPR in wild type Escherichia coli MG1655 cell lysate by SDS-PAGE.
Experiment [9] concerns the target Inosine-5'-monophosphate dehydrogenase 2 (Homo sapiens) (UniProt P12268). In words: Ratio of Kinact to Ki for human IMPDH2 at 25 degC.
For experiment [10] the target is unchanged. In words: Inhibition of human IMPDH2 at 200 uM by SDS-PAGE in presence of 6 mM dithiothreitol.

Chain of Inosine-5'-monophosphate dehydrogenase 2 (Homo sapiens) (P12268 2-514 limits assumed): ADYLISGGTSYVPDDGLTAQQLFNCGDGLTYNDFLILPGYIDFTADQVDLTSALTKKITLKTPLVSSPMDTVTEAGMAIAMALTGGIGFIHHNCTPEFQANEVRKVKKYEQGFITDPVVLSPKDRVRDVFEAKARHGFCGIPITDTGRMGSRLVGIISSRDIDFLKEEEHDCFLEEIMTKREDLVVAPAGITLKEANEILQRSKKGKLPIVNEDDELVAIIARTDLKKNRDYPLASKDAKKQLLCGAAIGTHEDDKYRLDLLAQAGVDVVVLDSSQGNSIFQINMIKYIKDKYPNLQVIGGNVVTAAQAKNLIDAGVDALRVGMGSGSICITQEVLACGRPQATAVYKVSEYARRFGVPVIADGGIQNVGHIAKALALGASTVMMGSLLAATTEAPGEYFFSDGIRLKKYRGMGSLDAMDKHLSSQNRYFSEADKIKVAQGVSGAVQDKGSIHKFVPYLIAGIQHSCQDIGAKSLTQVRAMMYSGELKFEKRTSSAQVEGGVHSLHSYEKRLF

Regarding `O=C(CCCC[C@@H]1SC[C@@H]2NC(=O)N[C@@H]21)NCCCO[C@@H]1[C@H](O)[C@@H](COP(=O)(O)O)O[C@H]1n1cnc2c(Cl)ncnc21`, the inhibition result in [1], in experiment [4], in experiment [6], in [7] and in [8] was “Active” throughout. Further, the Ratio in experiment [2] worked out at 130 M⁻¹ s⁻¹; in experiment [3], 1.4 M⁻¹ s⁻¹. In [5], the inhibition entry is “inactive”.
As to `O=P(O)(O)OC[C@H]1O[C@@H](n2cnc3c(Cl)ncnc32)[C@H](O)[C@@H]1O`, the values for the Ratio in [2] and in [9] were 120 M⁻¹ s⁻¹ and 0.9 M⁻¹ s⁻¹, respectively. Also, the inhibition entry in [10] was “inactive”.
